Data published in ChEMBL document CHEMBL3351756, “Synthesis and evaluation of the antiplasmodial activity of novel indeno[2,1-c]quinoline derivatives” (Bioorg Med Chem, 2014).
Converted amounts (≈) assume the structure as drawn.

Assays:
[1] = Resistance index, ratio of IC50 for chloroquine-resistant Plasmodium falciparum W2 to IC50 for chloroquine-sensitive Plasmodium falciparum 3D7; assay type: functional
Plasmodium falciparum [2] = test: Antimalarial activity against chloroquine-sensitive Plasmodium falciparum 3D7 infected in human type A-positive red blood cells assessed as growth inhibition after 72 hrs by spectrophotometrically; assay type: functional, organism-based; conditions: 3D7, 72 h
Plasmodium falciparum [3] = test: Antimalarial activity against chloroquine-resistant Plasmodium falciparum W2 infected in human type A-positive red blood cells assessed as growth inhibition after 72 hrs by spectrophotometrically; assay type: functional, organism-based; conditions: W2, 72 h
[4] = Selectivity index, ratio of CC50 for HMEC1 to IC50 for chloroquine-resistant Plasmodium falciparum W2; assay type: functional
[5] = Selectivity index, ratio of CC50 for HMEC1 to IC50 for chloroquine-sensitive Plasmodium falciparum 3D7; assay type: functional
[6] = Cytotoxicity against HMEC1 assessed as cell growth inhibition after 72 hrs by MTT assay; set-up: species or system HMEC-1; conditions: human, HMEC1 cells
[7] = tested on: Mycobacterium tuberculosis; test: Antimycobacterial activity against Mycobacterium tuberculosis; assay type: functional
[8] = Selectivity index, ratio of CC50 for HMEC1 to IC50 for chloroquine-sensitive Plasmodium falciparum D10; assay type: functional
Plasmodium falciparum [9] = test: Antimalarial activity against chloroquine-sensitive Plasmodium falciparum D10 infected in human type A-positive red blood cells assessed as growth inhibition after 72 hrs by spectrophotometrically; assay type: functional; conditions: D10, 72 h
Heme = test: Binding affinity to heme assessed as inhibition of beta-hematin formation measured as compound IC50 to haemin molar ratio by BHIA assay
[10] = Resistance index, ratio of IC50 for chloroquine-resistant Plasmodium falciparum W2 to IC50 for chloroquine-sensitive Plasmodium falciparum D10; assay type: functional
Plasmodium falciparum [11] = test: Antimalarial activity against Plasmodium falciparum Dd2; assay type: functional
Plasmodium falciparum [12] = test: Antimalarial activity against Plasmodium falciparum K1; assay type: functional, organism-based

Which Ratio IC50 [1] does the source give for `O=C1c2ccccc2-c2c1c(NCCN1CCCCC1)nc1cc(Cl)ccc21` here?
The Ratio IC50 was 0.5.

What about the IC50 (Plasmodium falciparum [2]) of the same molecule?
The IC50 was 2340 nM.

And the IC50 (Plasmodium falciparum [3])?
The IC50 was 1170 nM.

For `O=C1c2ccccc2-c2c1c(NCCN1CCCCC1)nc1ccc(Cl)cc21`, which Ratio IC50 [1] is on record?
Its Ratio IC50 is 0.4.

And the IC50 (Plasmodium falciparum [2])?
Its IC50 is 1710 nM.

What about the IC50 (Plasmodium falciparum [3]) of the same molecule?
The IC50 was 626 nM.

With `O/N=C1\c2ccccc2-c2c1c(NCCN1CCCCC1)nc1cc(Cl)ccc21` as the molecule, how does the Ratio IC50 [1] read?
Its Ratio IC50 is 0.5.

What about the Ratio CC50/IC50 [4] of the same molecule?
Its Ratio CC50/IC50 is 9.6.

What about the Ratio CC50/IC50 [5] of the same molecule?
The Ratio CC50/IC50 was 4.4.

And the IC50 (Plasmodium falciparum [2])?
The IC50 was 530 nM.

And the CC50 at 72 h [6]?
The CC50 at 72 h was 2340 nM.

What about the IC50 (Plasmodium falciparum [3]) of the same molecule?
The IC50 was 244 nM.

With `Clc1ccc(C(=C[C@@H]2CCCN3CCCC[C@H]23)c2ccc(Cl)cc2)cc1` as the molecule, how does the MIC [7] read?
Its MIC is 1.6 µM (≈ 0.618 µg/mL).

What does the source list for `O/N=C1\c2ccccc2-c2c1c(NCCN1CCCCC1)nc1ccc(Cl)cc21`?
Ratio IC50 [1]: 0.3; Ratio CC50/IC50 [4]: 12; Ratio CC50/IC50 [8]: 3.7; Ratio CC50/IC50 [5]: 3.7; IC50 (Plasmodium falciparum [9]): 850 nM; IC50 (Plasmodium falciparum [2]): 843 nM; CC50 at 72 h [6]: 3120 nM; IC50 (Heme): > 4 molar ratio; IC50 (Plasmodium falciparum [3]): 255 nM; Ratio IC50 [10]: 0.3

With `C(=C1c2ccccc2-c2ccccc21)[C@@H]1CCCN2CCCC[C@H]12` as the molecule, how does the MIC [7] read?
Its MIC is 0.49 µM (≈ 0.155 µg/mL).

For `O=C1c2ccccc2-c2c1c(NCCN1CCOCC1)nc1cc(Cl)ccc21`, which Ratio IC50 [1] is on record?
The Ratio IC50 was 0.4.

And the IC50 (Plasmodium falciparum [9])?
Its IC50 is 3760 nM.

And the IC50 (Plasmodium falciparum [2])?
Its IC50 is 6780 nM.

What about the IC50 (Plasmodium falciparum [3]) of the same molecule?
The IC50 was 2550 nM.

And the Ratio IC50 [10]?
Its Ratio IC50 is 0.7.

For `CN1CCN(CCNc2nc3ccc(Cl)cc3c3c2C(=O)c2ccccc2-3)CC1`, which Ratio IC50 [1] is on record?
The Ratio IC50 was 0.5.

And the Ratio CC50/IC50 [4]?
Its Ratio CC50/IC50 is 3.4.

And the Ratio CC50/IC50 [8]?
The Ratio CC50/IC50 was 2.8.

What about the Ratio CC50/IC50 [5] of the same molecule?
The Ratio CC50/IC50 was 1.9.

And the IC50 (Plasmodium falciparum [9])?
The IC50 was 703 nM.

What about the IC50 (Plasmodium falciparum [2]) of the same molecule?
The IC50 was 1030 nM.

And the CC50 at 72 h [6]?
The CC50 at 72 h was 1940 nM.

And the IC50 (Plasmodium falciparum [3])?
The IC50 was 568 nM.

What about the Ratio IC50 [10] of the same molecule?
Its Ratio IC50 is 0.8.

With `CCN(CC)CCCC(C)Nc1ccnc2cc(Cl)ccc12` (centres undefined) [CHLOROQUINE] as the molecule, how does the CC50 at 72 h [6] read?
The CC50 at 72 h was > 38000 nM.

With `CN1CCN(CCNc2nc3ccc(Cl)cc3c3c2/C(=N/O)c2ccccc2-3)CC1` as the molecule, how does the Ratio IC50 [1] read?
The Ratio IC50 was 0.8.

And the Ratio CC50/IC50 [4]?
Its Ratio CC50/IC50 is 3.7.

And the Ratio CC50/IC50 [8]?
The Ratio CC50/IC50 was 3.9.

What about the Ratio CC50/IC50 [5] of the same molecule?
Its Ratio CC50/IC50 is 3.2.

What about the IC50 (Plasmodium falciparum [9]) of the same molecule?
Its IC50 is 667 nM.

And the IC50 (Plasmodium falciparum [2])?
Its IC50 is 818 nM.

What about the CC50 at 72 h [6] of the same molecule?
The CC50 at 72 h was 2580 nM.

What about the IC50 (Plasmodium falciparum [3]) of the same molecule?
The IC50 was 699 nM.

What about the Ratio IC50 [10] of the same molecule?
Its Ratio IC50 is 1.

With `C(=C(c1ccccc1)c1ccccc1)[C@@H]1CCCN2CCCC[C@H]12` as the molecule, how does the MIC [7] read?
Its MIC is 3.9 µM (≈ 1.24 µg/mL).

With `O=C1c2ccccc2-c2c1c(N1CCN(c3ccccn3)CC1)nc1ccc(Cl)cc21` as the molecule, how does the IC50 (Plasmodium falciparum [9]) read?
Its IC50 is 6080 nM.

And the IC50 (Plasmodium falciparum [3])?
The IC50 was 6940 nM.

And the Ratio IC50 [10]?
The Ratio IC50 was 1.1.

What does the source list for `O/N=C1\c2ccccc2-c2c1c(NCCN1CCOCC1)nc1cc(Cl)ccc21`?
Ratio IC50 [1]: 0.5; IC50 (Plasmodium falciparum [9]): 2840 nM; IC50 (Plasmodium falciparum [2]): 5390 nM; IC50 (Plasmodium falciparum [3]): 2730 nM; Ratio IC50 [10]: 1

For `Clc1cccc(/C(=C\[C@@H]2CCCN3CCCC[C@H]23)c2ccccc2)c1`, which MIC [7] is on record?
The MIC was 0.85 µM (≈ 0.299 µg/mL).

Which Ratio CC50/IC50 [4] does the source give for `COc1nc2ccc(Cl)cc2c2c1/C(=N/N1CCN(C)CC1)c1ccccc1-2` here?
Its Ratio CC50/IC50 is 1.7.

And the Ratio CC50/IC50 [8]?
Its Ratio CC50/IC50 is 1.2.

And the IC50 (Plasmodium falciparum [9])?
Its IC50 is 4580 nM.

What about the CC50 at 72 h [6] of the same molecule?
Its CC50 at 72 h is 5280 nM.

What about the IC50 (Plasmodium falciparum [3]) of the same molecule?
The IC50 was 3160 nM.

What about the Ratio IC50 [10] of the same molecule?
Its Ratio IC50 is 0.7.

Which Ratio CC50/IC50 [4] does the source give for `O/N=C1\c2ccccc2-c2c1c(N1CCN(c3ccccn3)CC1)nc1ccc(Cl)cc21` here?
Its Ratio CC50/IC50 is > 5.6.

And the Ratio CC50/IC50 [8]?
Its Ratio CC50/IC50 is > 5.8.

And the IC50 (Plasmodium falciparum [9])?
The IC50 was 6610 nM.

And the CC50 at 72 h [6]?
The CC50 at 72 h was > 38000 nM.

And the IC50 (Plasmodium falciparum [3])?
The IC50 was 6810 nM.

What about the Ratio IC50 [10] of the same molecule?
Its Ratio IC50 is 1.

With `CN1CCN(CCNc2nc3cc(Cl)ccc3c3c2C(=O)c2ccccc2-3)CC1` as the molecule, how does the Ratio CC50/IC50 [4] read?
Its Ratio CC50/IC50 is 5.9.

And the Ratio CC50/IC50 [8]?
The Ratio CC50/IC50 was 6.7.

And the IC50 (Plasmodium falciparum [9])?
Its IC50 is 468 nM.

What about the CC50 at 72 h [6] of the same molecule?
Its CC50 at 72 h is 3120 nM.

What about the IC50 (Plasmodium falciparum [3]) of the same molecule?
Its IC50 is 534 nM.

What about the Ratio IC50 [10] of the same molecule?
The Ratio IC50 was 1.1.

With `O/N=C1\c2ccccc2-c2c1c(-n1ccnc1)nc1ccc(Cl)cc21` as the molecule, how does the IC50 (Plasmodium falciparum [9]) read?
The IC50 was > 5000 nM.

And the IC50 (Plasmodium falciparum [3])?
The IC50 was > 5000 nM.

Which IC50 (Plasmodium falciparum [9]) does the source give for `CCCCN(CCCC)CC(O)c1cc(Cl)cc2c1-c1ccc(Cl)cc1/C2=C/c1ccc(Cl)cc1` (centres undefined) [LUMEFANTRINE] here?
Its IC50 is 12 nM.

And the IC50 (Plasmodium falciparum [2])?
Its IC50 is 12 nM.

And the IC50 (Plasmodium falciparum [3])?
Its IC50 is 12 nM.

Which results are given for `O=C(c1ccc2[nH]ccc2c1)N1CCN(C2c3ccccc3-c3ccccc32)CC1`?
IC50 (Plasmodium falciparum [2]): 16900 nM; IC50 (Plasmodium falciparum [11]): 21600 nM

Which MIC [7] does the source give for `c1ccc2c(c1)-c1ccccc1C2C[C@@H]1CCCN2CCCC[C@H]12` here?
The MIC was 20 µM (≈ 6.35 µg/mL).

For `CCC(=O)O/N=C1\c2ccccc2-c2c1c(N1CCN(c3ccccn3)CC1)nc1ccc(Cl)cc21`, which Ratio CC50/IC50 [4] is on record?
Its Ratio CC50/IC50 is > 8.4.

And the Ratio CC50/IC50 [8]?
The Ratio CC50/IC50 was > 8.7.

What about the IC50 (Plasmodium falciparum [9]) of the same molecule?
The IC50 was 4050 nM.

And the CC50 at 72 h [6]?
Its CC50 at 72 h is > 35000 nM.

And the IC50 (Plasmodium falciparum [3])?
The IC50 was 4160 nM.

And the Ratio IC50 [10]?
Its Ratio IC50 is 1.

With `CN1CCN(c2nc3ccc(Cl)cc3c3c2C(=O)c2ccccc2-3)CC1` as the molecule, how does the Ratio CC50/IC50 [4] read?
The Ratio CC50/IC50 was 3.4.

What about the Ratio CC50/IC50 [8] of the same molecule?
Its Ratio CC50/IC50 is 2.5.

What about the IC50 (Plasmodium falciparum [9]) of the same molecule?
The IC50 was 1640 nM.

What about the CC50 at 72 h [6] of the same molecule?
Its CC50 at 72 h is 4030 nM.

What about the IC50 (Plasmodium falciparum [3]) of the same molecule?
The IC50 was 1190 nM.

And the Ratio IC50 [10]?
The Ratio IC50 was 0.7.

For `Clc1ccc(/C(=C\[C@@H]2CCCN3CCCC[C@H]23)c2ccccc2)cc1Cl`, which IC50 (Plasmodium falciparum [12]) is on record?
The IC50 was 400 nM.

With `COc1nc2ccc(Cl)cc2c2c1/C(=N/NC(=N)N)c1ccccc1-2` as the molecule, how does the Ratio CC50/IC50 [4] read?
The Ratio CC50/IC50 was 4.

What about the Ratio CC50/IC50 [8] of the same molecule?
Its Ratio CC50/IC50 is 4.8.

What about the IC50 (Plasmodium falciparum [9]) of the same molecule?
The IC50 was 360 nM.

What about the CC50 at 72 h [6] of the same molecule?
The CC50 at 72 h was 1720 nM.

And the IC50 (Plasmodium falciparum [3])?
The IC50 was 432 nM.

What about the Ratio IC50 [10] of the same molecule?
Its Ratio IC50 is 1.2.

Which results are given for `CN1CCN(CCNc2nc3cc(Cl)ccc3c3c2/C(=N/O)c2ccccc2-3)CC1`?
Ratio CC50/IC50 [4]: 2.8; Ratio CC50/IC50 [8]: 4.4; IC50 (Plasmodium falciparum [9]): 676 nM; CC50 at 72 h [6]: 2940 nM; IC50 (Plasmodium falciparum [3]): 1060 nM; Ratio IC50 [10]: 1.6
